Format in all cases: protein assay
Assay [1] concerns the target T1, S-adenosylmethionine synthetase (MAT 1 and MAT 2) (Rattus norvegicus, UniProt P13444+P18298). Briefly: Inhibition constant of compound with kidney (M-2) form of rat methionine adenosyltransferase when ATP was used as variable substrate;Competitive type of inhibition.
Assay [2] addresses T1, S-adenosylmethionine synthetase (MAT 1 and MAT 2). Description: Inhibition constant of compound with kidney (M-2) form of rat methionine adenosyltransferase when methionine was used as variable substrate;Simple non-competitive type of inhibition.
For assay [3] the target is unchanged. Briefly: Inhibition constant of compound with Novikoff ascitic hepatoma (M-T) form of rat methionine adenosyltransferase when ATP was used as variable substrate;Competitive type of inhibition.
For assay [4] the target is unchanged. Description: Inhibition constant of compound with Novikoff ascitic hepatoma (M-T) form of rat methionine adenosyltransferase when methionine was used as variable substrate;Simple non-competitive type of inhibition.

The Ki is a measure of affinity in units of concentration, obtained from inhibition or displacement. Read a low Ki as a stronger hold on the target. Take `Nc1ncnc2c1ncn2[C@@H]1O[C@H](C(CP(=O)(O)OP(=O)(O)OP(=O)(O)O)SCCC(N)C(=O)O)[C@@H](O)[C@H]1O` (single isomer, unassigned; isomer A): the Ki in assay [1] turned out to be 39 µM. Take `Nc1ncnc2c1ncn2C1O[C@H](CCNP(=O)(O)OP(=O)(O)OP(=O)(O)O)[C@@H](O)[C@H]1O` (some centres undefined): the results for the Ki in assay [2] and in assay [1] were 580 µM and 14 µM, respectively. The molecule `Nc1ncnc2c1ncn2[C@@H]1O[C@H]([C@@H](CNP(=O)(O)OP(=O)(O)OP(=O)(O)O)SCCC(N)C(=O)O)[C@@H](O)[C@H]1O` (some centres undefined) had a Ki in assay [3] of 20 µM. As to `Nc1ncnc2c1ncn2[C@@H]1O[C@H](C(CP(=O)(O)OP(=O)(O)OP(=O)(O)O)SCCC(N)C(=O)O)[C@@H](O)[C@H]1O` (single isomer, unassigned; isomer B), the Ki in assay [1] was 180 µM. For `Nc1ncnc2c1ncn2C1O[C@H]([C@H](CNP(=O)(O)OP(=O)(O)OP(=O)(O)O)SCCC(N)C(=O)O)[C@@H](O)[C@H]1O` (some centres undefined), the Ki in assay [3] turned out to be 0.27 µM; in assay [4], 2.3 µM; in assay [2], 3 µM; in assay [1] it was 0.36 µM.
